# Test results published in US6399541B1, “Substituted 2,4-diamino-1,3,5-triazines as herbicides” (Bayer Aktiengesellschaft, priority 1997, dated 2002).
# Tests used:
# Format in all cases: in vivo
# Abutilon = test: Pre-emergence test/greenhouse; conditions: after three weeks
# Procedure: (§1) Solvent: 5 parts by weight of acetone
# (§2) Emulsifier: 1 part by weight of alkylaryl polyglycol ether
# (§3) To produce a suitable preparation of active compound, 1 part by weight of active compound is mixed with the stated amount of solvent, the stated amount of emulsifier is added and the concentrate is diluted with water to the desired concentration.
# (§4) Seeds of the test plants are sown in normal soil. After about 24 hours, the soil is sprayed with the preparation of active compound in such a way that the particular amounts of active compound desired are employed per unit area. The concentration of the spray liquor is chosen such that the particular amounts of active compound desired are applied in 1000 l of water/ha.
# (§5) After three weeks, the degree of damage to the plants is assessed in % damage in comparison to the development of the untreated control.
# (§6) 0%=no effect (as untreated control) 100%=total destruction
# Alopecurus = test: Pre-emergence test/greenhouse; conditions: after three weeks
# Procedure: as §1, §2, §3, §4, §5, §6
# Amaranthus = test: Pre-emergence test/greenhouse; conditions: after three weeks
# Procedure: as §1, §2, §3, §4, §5, §6
# Cassia [1] = test: Pre-emergence test/greenhouse; conditions: 250 g of ai./ha, after three weeks
# Procedure: as §1, §2, §3, §4, §5, §6
# Ipomoea [2] = test: Pre-emergence test/greenhouse; conditions: 250 g of ai./ha, after three weeks
# Procedure: as §1, §2, §3, §4, §5, §6
# Lolium = test: Pre-emergence test/greenhouse; conditions: 250 g of ai./ha, after three weeks
# Procedure: as §1, §2, §3, §4, §5, §6
# Sorghum = test: Pre-emergence test/greenhouse; conditions: 250 g of ai./ha, after three weeks
# Procedure: as §1, §2, §3, §4, §5, §6
# weeds [3] = test: Pre-emergence test; conditions: cf. Table A
# Procedure: as §1, §2, §3, §4, §5, §6
# Reapseed = test: Pre-emergence test/greenhouse; conditions: after three weeks
# Procedure: as §1, §2, §3, §4, §5, §6
# Cassia [4] = test: Post-emergence test/greenhouse; conditions: after three weeks
# Procedure: as §1, §2, §3
# as §4, with “Test plants which have a height” for “Seeds”, “5 to 15 cm” for “the test plants”, “are” for “are sown in normal soil. After about 24 hours, the soil is”, “applied” for “employed”
# as §5
# (§7) 0%=no effect (as untreated control)
# Solanum [5] = test: Post-emergence test/greenhouse; conditions: 60 g of ai./ha, after three weeks
# Procedure: as §1, §2, §3
# as §4, with “Test plants which have a height” for “Seeds”, “5 to 15 cm” for “the test plants”, “are” for “are sown in normal soil. After about 24 hours, the soil is”, “applied” for “employed”
# as §5, §7
# Veronica [6] = test: Post-emergence test/greenhouse; conditions: after three weeks
# Procedure: as §1, §2, §3
# as §4, with “Test plants which have a height” for “Seeds”, “5 to 15 cm” for “the test plants”, “are” for “are sown in normal soil. After about 24 hours, the soil is”, “applied” for “employed”
# as §5, §7
# Wheat = test: Post-emergence test/greenhouse; conditions: after three weeks
# Procedure: as §1, §2, §3
# as §4, with “Test plants which have a height” for “Seeds”, “5 to 15 cm” for “the test plants”, “are” for “are sown in normal soil. After about 24 hours, the soil is”, “applied” for “employed”
# as §5, §7
# weeds [7] = test: Post-emergence test; conditions: cf. Table B
# Procedure: as §1, §2, §3
# as §4, with “Test plants which have a height” for “Seeds”, “5 to 15 cm” for “the test plants”, “are” for “are sown in normal soil. After about 24 hours, the soil is”, “applied” for “employed”
# as §5, §7
# Avena fatua = test: Pre-emergence test/greenhouse; conditions: after three weeks
# Procedure: as §1, §2, §3, §4, §5, §6
# Barley [8] = test: Pre-emergence test/greenhouse; conditions: 250 g of ai./ha, after three weeks
# Procedure: as §1, §2, §3, §4, §5, §6
# Chenopodium = test: Pre-emergence test/greenhouse; conditions: 125 g of ai./ha, after three weeks
# Procedure: as §1, §2, §3, §4, §5, §6
# Cotton = test: Pre-emergence test/greenhouse; conditions: 250 g of ai./ha, after three weeks
# Procedure: as §1, §2, §3, §4, §5, §6
# Datura = test: Pre-emergence test/greenhouse; conditions: 125 g of ai./ha, after three weeks
# Procedure: as §1, §2, §3, §4, §5, §6
# Galium = test: Pre-emergence test/greenhouse; conditions: 1000 g of ai./ha, after three weeks
# Procedure: as §1, §2, §3, §4, §5, §6
# Matricaria [9] = test: Pre-emergence test/greenhouse; conditions: 125 g of ai./ha, after three weeks
# Procedure: as §1, §2, §3, §4, §5, §6
# Setaria [10] = test: Pre-emergence test/greenhouse; conditions: after three weeks
# Procedure: as §1, §2, §3, §4, §5, §6
# Solanum [11] = test: Pre-emergence test/greenhouse; conditions: 125 g of ai./ha, after three weeks
# Procedure: as §1, §2, §3, §4, §5, §6
# Veronica [12] = test: Pre-emergence test/greenhouse; conditions: 250 g of ai./ha, after three weeks
# Procedure: as §1, §2, §3, §4, §5, §6
# Viola = test: Pre-emergence test/greenhouse; conditions: 250 g of ai./ha, after three weeks
# Procedure: as §1, §2, §3, §4, §5, §6
# Xanthium [13] = test: Pre-emergence test/greenhouse; conditions: 1000 g of ai./ha, after three weeks
# Procedure: as §1, §2, §3, §4, §5, §6
# Barley [14] = test: Post-emergence test/greenhouse; conditions: 125 g of ai./ha, after three weeks
# Procedure: as §1, §2, §3
# as §4, with “Test plants which have a height” for “Seeds”, “5 to 15 cm” for “the test plants”, “are” for “are sown in normal soil. After about 24 hours, the soil is”, “applied” for “employed”
# as §5, §7
# Echinochloa = test: Post-emergence test/greenhouse; conditions: 125 g of ai./ha, after three weeks
# Procedure: as §1, §2, §3
# as §4, with “Test plants which have a height” for “Seeds”, “5 to 15 cm” for “the test plants”, “are” for “are sown in normal soil. After about 24 hours, the soil is”, “applied” for “employed”
# as §5, §7
# Ipomoea [15] = test: Post-emergence test/greenhouse; conditions: after three weeks
# Procedure: as §1, §2, §3
# as §4, with “Test plants which have a height” for “Seeds”, “5 to 15 cm” for “the test plants”, “are” for “are sown in normal soil. After about 24 hours, the soil is”, “applied” for “employed”
# as §5, §7
# Matricaria [16] = test: Post-emergence test/greenhouse; conditions: 125 g of ai./ha, after three weeks
# Procedure: as §1, §2, §3
# as §4, with “Test plants which have a height” for “Seeds”, “5 to 15 cm” for “the test plants”, “are” for “are sown in normal soil. After about 24 hours, the soil is”, “applied” for “employed”
# as §5, §7
# Polygonum = test: Post-emergence test/greenhouse; conditions: 60 g of ai./ha, after three weeks
# Procedure: as §1, §2, §3
# as §4, with “Test plants which have a height” for “Seeds”, “5 to 15 cm” for “the test plants”, “are” for “are sown in normal soil. After about 24 hours, the soil is”, “applied” for “employed”
# as §5, §7
# Setaria [17] = test: Post-emergence test/greenhouse; conditions: 125 g of ai./ha, after three weeks
# Procedure: as §1, §2, §3
# as §4, with “Test plants which have a height” for “Seeds”, “5 to 15 cm” for “the test plants”, “are” for “are sown in normal soil. After about 24 hours, the soil is”, “applied” for “employed”
# as §5, §7
# Xanthium [18] = test: Post-emergence test/greenhouse; conditions: 125 g of ai./ha, after three weeks
# Procedure: as §1, §2, §3
# as §4, with “Test plants which have a height” for “Seeds”, “5 to 15 cm” for “the test plants”, “are” for “are sown in normal soil. After about 24 hours, the soil is”, “applied” for “employed”
# as §5, §7
compound,measurement,setting,value
CC(F)c1nc(N)nc(NC(C)c2ccccc2)n1 (racemic) [Example 16],"degree of damage, Abutilon",Abutilon; 250 g of ai./ha,80%
same,"degree of damage, Alopecurus",Alopecurus; 250 g of ai./ha,100%
same,"degree of damage, Amaranthus",Amaranthus; 250 g of ai./ha,100%
same,"degree of damage, Cassia",Cassia [1],100%
same,"degree of damage, Ipomoea",Ipomoea [2],100%
same,"degree of damage, Lolium",Lolium,100%
same,"degree of damage, Sorghum",Sorghum,95%
same,action against weeds compared with known compound (A),weeds [3],considerably strong action against weeds than the known compound (A)
CC(Cl)c1nc(N)nc(NC(C)c2ccccc2)n1 (racemic) [Example 18],"degree of damage, Amaranthus",Amaranthus; 250 g of ai./ha,100%
same,"degree of damage, Ipomoea",Ipomoea [2],95%
same,"degree of damage, Reapseed",Reapseed; 250 g of ai./ha,0%
same,"degree of damage, Cassia",Cassia [4]; 60 g of ai./ha,70%
same,"degree of damage, Solanum",Solanum [5],90%
same,"degree of damage, Veronica",Veronica [6]; 60 g of ai./ha,95%
same,"degree of damage, Wheat",Wheat; 60 g of ai./ha,0%
same,action against weeds compared with known compound (A),weeds [3],considerably strong action against weeds than the known compound (A)
same,activity against weeds compared with known compound (A),weeds [7],considerably stronger activity against weeds than the known compound (A)
"CC(Nc1nc(N)nc(C(F)(F)F)n1)c1ccccc1 (centres unmarked) [(A), 2-Amino-4-(1-phenyl-ethylamino)-6-trifluoromethyl-1,3,5-triazine, reference compound]","degree of damage, Abutilon",Abutilon; 250 g of ai./ha,0%
same,"degree of damage, Abutilon",Abutilon; 1000 g of ai./ha,0%
same,"degree of damage, Alopecurus",Alopecurus; 250 g of ai./ha,30%
same,"degree of damage, Alopecurus",Alopecurus; 1000 g of ai./ha,30%
same,"degree of damage, Amaranthus",Amaranthus; 125 g of ai./ha,40%
same,"degree of damage, Amaranthus",Amaranthus; 250 g of ai./ha,80%
same,"degree of damage, Amaranthus",Amaranthus; 1000 g of ai./ha,70%
same,"degree of damage, Avena fatua",Avena fatua; 250 g of ai./ha,0%
same,"degree of damage, Avena fatua",Avena fatua; 1000 g of ai./ha,0%
same,"degree of damage, Barley",Barley [8],0%
same,"degree of damage, Cassia",Cassia [1],20%
same,"degree of damage, Chenopodium",Chenopodium,20%
same,"degree of damage, Cotton",Cotton,0%
same,"degree of damage, Datura",Datura,0%
same,"degree of damage, Galium",Galium,60%
same,"degree of damage, Ipomoea",Ipomoea [2],20%
same,"degree of damage, Lolium",Lolium,0%
same,"degree of damage, Matricaria",Matricaria [9],0%
same,"degree of damage, Reapseed",Reapseed; 125 g of ai./ha,40%
same,"degree of damage, Reapseed",Reapseed; 250 g of ai./ha,40%
same,"degree of damage, Setaria",Setaria [10]; 250 g of ai./ha,0%
same,"degree of damage, Setaria",Setaria [10]; 1000 g of ai./ha,20%
same,"degree of damage, Solanum",Solanum [11],0%
same,"degree of damage, Sorghum",Sorghum,0%
same,"degree of damage, Veronica",Veronica [12],20%
same,"degree of damage, Viola",Viola,0%
same,"degree of damage, Xanthium",Xanthium [13],70%
same,"degree of damage, Barley",Barley [14],5%
same,"degree of damage, Cassia",Cassia [4]; 60 g of ai./ha,40%
same,"degree of damage, Cassia",Cassia [4]; 125 g of ai./ha,80%
same,"degree of damage, Echinochloa",Echinochloa,50%
same,"degree of damage, Ipomoea",Ipomoea [15]; 60 g of ai./ha,80%
same,"degree of damage, Ipomoea",Ipomoea [15]; 125 g of ai./ha,90%
same,"degree of damage, Matricaria",Matricaria [16],60%
same,"degree of damage, Polygonum",Polygonum,80%
same,"degree of damage, Setaria",Setaria [17],50%
same,"degree of damage, Solanum",Solanum [5],40%
same,"degree of damage, Veronica",Veronica [6]; 60 g of ai./ha,70%
same,"degree of damage, Veronica",Veronica [6]; 125 g of ai./ha,90%
same,"degree of damage, Wheat",Wheat; 60 g of ai./ha,0%
same,"degree of damage, Wheat",Wheat; 125 g of ai./ha,0%
same,"degree of damage, Xanthium",Xanthium [18],60%
